Source: patent US9328099B2, “Cyanomethylpyrazole carboxamides as janus kinase inhibitors” (Merck Sharp & Dohme Corp., priority 2011, dated 2016)

Assays:
JAK1 = JAK1 (Homo sapiens (Human), UniProt P23458); test: Jak Biochemical HTRF Assay, JAK1; conditions: HTRF biochemical assay, GST-tagged catalytic domain; top concentration tested […]; read-out: JAK1 IC50
Excerpt: (§1) Jak Biochemical HTRF Assay Protocol
(§2) Subsequent reagent additions employed an Agilent Bravo.

JAK2 = JAK2 (Homo sapiens (Human), UniProt O60674); test: Jak Biochemical HTRF Assay, JAK2; conditions: HTRF biochemical assay, GST-tagged catalytic domain; top concentration tested […]
Sequence of JAK2 (O60674 849-1124): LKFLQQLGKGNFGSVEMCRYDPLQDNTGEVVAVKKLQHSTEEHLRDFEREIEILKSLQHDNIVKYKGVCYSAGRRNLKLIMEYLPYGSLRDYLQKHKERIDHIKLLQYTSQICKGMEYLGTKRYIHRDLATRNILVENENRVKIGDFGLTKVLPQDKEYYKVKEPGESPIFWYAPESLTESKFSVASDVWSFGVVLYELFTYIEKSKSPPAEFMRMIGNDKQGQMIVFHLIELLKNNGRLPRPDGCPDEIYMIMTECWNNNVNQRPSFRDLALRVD
Excerpt: as §1, §2

Sequence of JAK1 (P23458 875-1153): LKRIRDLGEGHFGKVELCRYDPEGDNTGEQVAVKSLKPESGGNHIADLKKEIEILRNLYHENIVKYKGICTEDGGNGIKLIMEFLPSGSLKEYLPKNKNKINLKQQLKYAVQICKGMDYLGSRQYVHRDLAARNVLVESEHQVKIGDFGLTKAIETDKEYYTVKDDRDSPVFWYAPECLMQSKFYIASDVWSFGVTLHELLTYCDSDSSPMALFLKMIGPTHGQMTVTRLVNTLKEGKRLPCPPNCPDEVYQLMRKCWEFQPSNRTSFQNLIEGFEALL

SMILES	IC50 (JAK1)	IC50 (JAK2)
COC(=O)c1cccc(N2CCC(CC#N)(n3cc(C(N)=O)c(Nc4ccc(F)cc4)n3)CC2)n1 [Example 3-35, methyl 6-[4-{4-carbamoyl-3-[(4-fluorophenyl)amino]-1H-pyrazol-1-yl}-4-(cyanomethyl)piperidin-1-yl]pyridine-2-carboxylate]	19 nM	280 nM
CCOc1ccc(N2CCC(CC#N)(n3cc(C(N)=O)c(Nc4ccc(F)cc4)n3)CC2)cn1 [Example 3-36, 1-[4-(cyanomethyl)-1-(6-ethoxypyridin-3-yl)piperidin-4-yl]-3-[(4-fluorophenyl)amino]-1H-pyrazole-4-carboxamide]	3 nM	46 nM
COc1cncc(N2CCC(CC#N)(n3cc(C(N)=O)c(Nc4ccc(F)cc4)n3)CC2)c1 [Example 3-37, 1-[4-(cyanomethyl)-1-(5-methoxypyridin-3-yl)piperidin-4-yl]-3-[(4-fluorophenyl)amino]-1H-pyrazole-4-carboxamide]	0.6 nM	17 nM
N#CCC1(n2cc(C(N)=O)c(Nc3ccc(F)cc3)n2)CCN(c2ccc(F)cc2)CC1 [Example 3-38, 1-[4-(cyanomethyl)-1-(4-fluorophenyl)piperidin-4-yl]-3-[(4-fluorophenyl)amino]-1H-pyrazole-4-carboxamide]	2 nM	37 nM
Cc1ccc(N2CCC(CC#N)(n3cc(C(N)=O)c(Nc4ccc(F)cc4)n3)CC2)cc1 [Example 3-39, 1-[4-(cyanomethyl)-1-(4-methylphenyl)piperidin-4-yl]-3-[(4-fluorophenyl)amino]-1H-pyrazole-4-carboxamide]	4 nM	117 nM
N#CCC1(n2cc(C(N)=O)c(Nc3ccc(F)cc3)n2)CCN(c2cc(F)cc(F)c2)CC1 [Example 3-40, 1-[4-(cyanomethyl)-1-(3,5-difluorophenyl)piperidin-4-yl]-3-[(4-fluorophenyl)amino]-1H-pyrazole-4-carboxamide]	3 nM	67 nM
COc1ccccc1N1CCC(CC#N)(n2cc(C(N)=O)c(Nc3ccc(F)cc3)n2)CC1 [Example 3-41, 1-[4-(cyanomethyl)-1-(2-methoxyphenyl)piperidin-4-yl]-3-[(4-fluorophenyl)amino]-1H-pyrazole-4-carboxamide]	213 nM	> 1500 nM
Cc1cc(N2CCC(CC#N)(n3cc(C(N)=O)c(Nc4ccc(F)cc4)n3)CC2)ccc1F [Example 3-42, 1-[4-(cyanomethyl)-1-(4-fluoro-3-methylphenyl)piperidin-4-yl]-3-[(4-fluorophenyl)amino]-1H-pyrazole-4-carboxamide]	12 nM	287 nM
Cc1cccc(N2CCC(CC#N)(n3cc(C(N)=O)c(Nc4ccc(F)cc4)n3)CC2)c1F [Example 3-43, 1-[4-(cyanomethyl)-1-(2-fluoro-3-methylphenyl)piperidin-4-yl]-3-[(4-fluorophenyl)amino]-1H-pyrazole-4-carboxamide]	10 nM	295 nM
N#CCC1(n2cc(C(N)=O)c(Nc3ccc(F)cc3)n2)CCN(c2cc(F)ccn2)CC1 [Example 3-44, 1-[4-(cyanomethyl)-1-(4-fluoropyridin-2-yl)piperidin-4-yl]-3-[(4-fluorophenyl)amino]-1H-pyrazole-4-carboxamide]	0.2 nM	6 nM
N#CCC1(n2cc(C(N)=O)c(Nc3ccc(F)cc3)n2)CCN(c2ccc(F)c(F)c2)CC1 [Example 3-45, 1-[4-(cyanomethyl)-1-(3,4-difluorophenyl)piperidin-4-yl]-3-[(4-fluorophenyl)amino]-1H-pyrazole-4-carboxamide]	2 nM	70 nM
N#CCC1(n2cc(C(N)=O)c(Nc3ccc(F)cc3)n2)CCN(c2ccncc2)CC1 [Example 3-46, 1-[4-(cyanomethyl)-1-pyridin-4-ylpiperidin-4-yl]-3-[(4-fluorophenyl)amino]-1H-pyrazole-4-carboxamide]	3 nM	78 nM
Cc1ncncc1N1CCC(CC#N)(n2cc(C(N)=O)c(Nc3ccc(F)cc3)n2)CC1 [Example 3-47, 1-[4-(cyanomethyl)-1-(4-methylpyrimidin-5-yl)piperidin-4-yl]-3-[(4-fluorophenyl)amino]-1H-pyrazole-4-carboxamide]	13 nM	181 nM
Cc1cncc(N2CCC(CC#N)(n3cc(C(N)=O)c(Nc4ccc(F)cc4)n3)CC2)c1 [Example 3-48, 1-[4-(cyanomethyl)-1-(5-methylpyridin-3-yl)piperidin-4-yl]-3-[(4-fluorophenyl)amino]-1H-pyrazole-4-carboxamide]	1 nM	26 nM
CC(C)(O)Cc1cccc(N2CCC(CC#N)(n3cc(C(N)=O)c(Nc4ccc(F)cc4)n3)CC2)n1 [Example 3-49, 1-{4-(cyanomethyl)-1-[6-(2-hydroxy-2-methylpropyl)pyridin-2-yl]piperidin-4-yl}-3-[(4-fluorophenyl)amino]-1H-pyrazole-4-carboxamide]	5 nM	147 nM
N#CCC1(n2cc(C(N)=O)c(Nc3ccc(F)cc3)n2)CCN(c2cccc(CF)n2)CC1 [Example 3-50, 1-{4-(cyanomethyl)-1-[6-(fluoromethyl)pyridin-2-yl]piperidin-4-yl}-3-[(4-fluorophenyl)amino]-1H-pyrazole-4-carboxamide]	3 nM	39 nM
N#CCC1(n2cc(C(N)=O)c(Nc3ccc(F)cc3)n2)CCN(c2cccnc2F)CC1 [Example 3-51, 1-[4-(cyanomethyl)-1-(2-fluoropyridin-3-yl)piperidin-4-yl]-3-[(4-fluorophenyl)amino]-1H-pyrazole-4-carboxamide]	0.06 nM	0.6 nM
Cc1ccc(N2CCC(CC#N)(n3cc(C(N)=O)c(Nc4ccc(F)cc4)n3)CC2)cn1 [Example 3-52, 1-[4-(cyanomethyl)-1-(6-methylpyridin-3-yl)piperidin-4-yl]-3-[(4-fluorophenyl)amino]-1H-pyrazole-4-carboxamide]	0.4 nM	8 nM
COc1ccc(N2CCC(CC#N)(n3cc(C(N)=O)c(Nc4ccc(F)cc4)n3)CC2)cn1 [Example 3-53, 1-[4-(cyanomethyl)-1-(6-methoxypyridin-3-yl)piperidin-4-yl]-3-[(4-fluorophenyl)amino]-1H-pyrazole-4-carboxamide]	0.4 nM	9 nM
N#CCC1(n2cc(C(N)=O)c(Nc3ccc(F)cc3)n2)CCN(c2cccc(F)n2)CC1 [Example 3-54, 1-[4-(cyanomethyl)-1-(6-fluoropyridin-2-yl)piperidin-4-yl]-3-[(4-fluorophenyl)amino]-1H-pyrazole-4-carboxamide]	0.3 nM	4 nM
N#CCC1(n2cc(C(N)=O)c(Nc3ccc(F)cc3)n2)CCN(c2cc(C(F)(F)F)ccn2)CC1 [Example 3-55, 1-{4-(cyanomethyl)-1-[4-(trifluoromethyl)pyridin-2-yl]piperidin-4-yl}-3-[(4-fluorophenyl)amino]-1H-pyrazole-4-carboxamide]	1 nM	75 nM
Cc1cc(N2CCC(CC#N)(n3cc(C(N)=O)c(Nc4ccc(F)cc4)n3)CC2)cnc1F [Example 3-56, 1-[4-(cyanomethyl)-1-(6-fluoro-5-methylpyridin-3-yl)piperidin-4-yl]-3-[(4-fluorophenyl)amino]-1H-pyrazole-4-carboxamide]	1 nM	23 nM

Second part, the molecule after the results:

IC50 (JAK1)	IC50 (JAK2)	SMILES
0.1 nM	1 nM	CC(C)(C)OC(=O)N1CCC(CC#N)(n2cc(C(N)=O)c(Nc3ccc(S(C)(=O)=O)cc3)n2)CC1 [Example 4-1, tert-Butyl 4-(4-carbamoyl-3-{[4-(methylsulfonyl)phenyl]amino}-1H-pyrazol-1-yl)-4-(cyanomethyl)piperidine-1-carboxylate]
2 nM	20 nM	CC(C)OC(=O)c1ccc(Nc2nn(C3(CC#N)CCN(C(=O)OC(C)(C)C)CC3)cc2C(N)=O)cc1 [Example 4-2, tert-butyl 4-[4-carbamoyl-3-({4-[(1-methylethoxy)carbonyl]phenyl}amino)-1H-pyrazol-1-yl]-4-(cyanomethyl)piperidine-1-carboxylate]
0.6 nM	11 nM	CC(C)(C)OC(=O)N1CCC(CC#N)(n2cc(C(N)=O)c(Nc3cccc(Cn4ccnc4)c3)n2)CC1 [Example 4-3, tert-butyl 4-(4-carbamoyl-3-{[3-(1H-imidazol-1-ylmethyl)phenyl]amino}-1H-pyrazol-1-yl)-4-(cyanomethyl)piperidine-1-carboxylate]
0.5 nM	23 nM	N#CCC1(n2cc(C(N)=O)c(Nc3cccc(Cn4nnc5ccccc54)c3)n2)CCN(C(=O)OCC(F)(F)F)CC1 [Example 4-4, 2,2,2-trifluoroethyl 4-(3-{[3-(1H-benzotriazol-1-ylmethyl)phenyl]amino}-4-carbamoyl-1H-pyrazol-1-yl)-4-(cyanomethyl)piperidine-1-carboxylate]
3 nM	38 nM	CC(C)(C)OC(=O)N1CCC(CC#N)(n2cc(C(N)=O)c(Nc3cnc(C#N)nc3)n2)CC1 [Example 4-6, tert-butyl 4-{4-carbamoyl-3-[(2-cyanopyrimidin-5-yl)amino]-1H-pyrazol-1-yl}-4-(cyanomethyl)piperidine-1-carboxylate]
34 nM	162 nM	CC(C#N)C1(n2cc(C(N)=O)c(Nc3ccc(F)cc3)n2)CCN(C(=O)OC(C)(C)C)CC1 (stereo not drawn) [Example 5-1, tert-Butyl 4-(4-carbamoyl-3-((4-fluorophenyl)amino)-1H-pyrazol-1-yl)-4-(1-cyanoethyl)piperidine-1-carboxylate]
271 nM	738 nM	CC(C)(C)OC(=O)N1CCC(C(C#N)C2CC2)(n2cc(C(N)=O)c(Nc3ccc(F)cc3)n2)CC1 (stereo not drawn) [Example 5-2, tert-butyl 4-{4-carbamoyl-3-[(4-fluorophenyl)amino]-1H-pyrazol-1-yl}-4-[cyano(cyclopropyl)methyl] piperidine-1-carboxylate]
7 nM	48 nM	N#CCC1(n2cc(C(N)=O)c(Nc3ccc(F)cc3)n2)CCC2(CC1)OCCO2 [Example 6-6, 1-[8-(cyanomethyl)-1,4-dioxaspiro[4.5]dec-8-yl]-3-[(4-fluorophenyl)amino]-1H-pyrazole-4-carboxamide]
